Patent publication US10174053B2, “2 substituted cephem compounds” (Glaxo Group Limited, priority 2012, dated 2019)
Converted amounts (≈) assume the structure as drawn. Like-named read-outs stand apart in the source and are kept apart here.

Legend:
Assay in all cases: In vitro antimicrobial activity, MIC by broth microdilution (CLSI)
Assay type in all cases: cell-based
A. baumannii JMI7 = conditions: Acinetobacter baumannii
Procedure: (§1) Compound (I) of the invention was evaluated for in vitro antimicrobial activity thereof.
(§2) Measurement of Minimum Inhibitory Concentration (MIC: μg/mL) was conducted according to CLSI (Clinical and Laboratory Standards Institute) method, and the amount of bacteria for inoculation was 5×10^5 cfu/mL, and cation-adjusted Iso-Sensitest broth containing human Apo-transferrin was used as a test medium, and the experiment was conducted using broth microdilution method. The bacteria used are listed below.

K. pneumoniae SR01358 = conditions: Klebsiella pneumoniae
Procedure: as §1, §2

A. baumannii JMI2346 = conditions: Acinetobacter baumannii
Procedure: as §1, §2

E. Coli JMI1890 = conditions: Escherichia coli, read-out: Minimum Inhibitory Concentration (MIC) E. Coli JMI:1890
Procedure: as §1, §2

[1] = JMI7, PER-1, OXA-23, 51, ESBL and OXA-type carbapenemase producing strain, 5×10^5 cfu/mL, cation-adjusted Iso-Sensitest broth containing human Apo-transferrin, read-out: Minimum Inhibitory Concentration (MIC) A. baumannii JMI:7
[2] = SR01358, KPC-2, ESBL and KPC-type carbapenemase producing strain, 5×10^5 cfu/mL, cation-adjusted Iso-Sensitest broth containing human Apo-transferrin, read-out: Minimum Inhibitory Concentration (MIC) K. pneumoniae SR01358
[3] = JMI2346, OXA-51, TEM, ESBL and OXA-type carbapenemase producing strain, 5×10^5 cfu/mL, cation-adjusted Iso-Sensitest broth containing human Apo-transferrin, read-out: Minimum Inhibitory Concentration (MIC) A. baumannii JMI:2346
[4] = PER-1, TEM-1, ESBL producing strain, 5×10^5 cfu/mL, cation-adjusted Iso-Sensitest broth containing human Apo-transferrin

Row | SMILES | MIC (K. pneumoniae SR01358; [2]) [µg/mL] | MIC (E. Coli JMI1890; [4]) [µg/mL] | MIC (A. baumannii JMI7; [1]) [µg/mL] | MIC (A. baumannii JMI2346; [3]) [µg/mL] | MIC (A. baumannii JMI7; JMI7, read-out: Minimum Inhibitory Concentration (MIC) A. baumannii JMI:7) [µg/mL] | MIC (K. pneumoniae SR01358; SR01358, read-out: Minimum Inhibitory Concentration (MIC) K. pneumoniae SR01358) [µg/mL] | MIC (A. baumannii JMI2346; JMI2346, read-out: Minimum Inhibitory Concentration (MIC) A. baumannii JMI:2346) [µg/mL] | MIC (E. Coli JMI1890) [µg/mL]
1 | C[C@@H]1S[C@@H]2[C@H](NC(=O)/C(=N\OC(C)(C)C(=O)[O-])c3csc(N)n3)C(=O)N2C(C(=O)O)=C1C[N+]12CCC(CNC(=O)/C(=N\OCC(=O)O)c3ccc(O)c(O)c3Cl)(CC1)CC2 [Compound I-98] | ≤ 0.031 | 0.063 (≈ 0.0705 µM) | 0.5 (≈ 0.56 µM) | 4 (≈ 4.48 µM) |  |  |  | 
2 | C[C@@H]1S[C@@H]2[C@H](NC(=O)/C(=N\OC(C)(C)C(=O)[O-])c3csc(N)n3)C(=O)N2C(C(=O)[O-])=C1C[N+]12CCC(CNC(=O)c3c[nH]c4cc(O)c(O)c(Cl)c4c3=O)(CC1)CC2.[Na+] [Compound I-169, (4S,6R,7R)-7-((Z)-2-(2-aminothiazol-4-yl)-2-(((2-carboxypropan-2-yl)oxy)imino)acetamido)-3-((4-((5-chloro-6,7-dihydroxy-4-oxo-1,4-dihydroquinoline-3-carboxamido)methyl)quinuclidin-1-ium-1-yl)methyl)-4-methyl-8-oxo-5-thia-1-azabicyclo[4.2.0]oct-2-ene-2-carboxylate, Sodium salt] | ≤ 0.031 | 0.063 | 0.25 | 0.5 |  |  |  | 
3 | C[C@@H]1S[C@@H]2[C@H](NC(=O)/C(=N\OC(C)(C)C(=O)O)c3csc(N)n3)C(=O)N2C(C(=O)[O-])=C1C[N+]12CCC(Cn3ncc4cc(O)c(O)c(Cl)c4c3=O)(CC1)CC2 [Compound I-125] | ≤ 0.031 | 0.125 (≈ 0.153 µM) | 0.5 (≈ 0.612 µM) | 8 (≈ 9.79 µM) |  |  |  | 
4 | CO/N=C(\C(=O)NCC12CC[N+](CC3=C(C(=O)O)N4C(=O)[C@@H](NC(=O)/C(=N\OC(C)(C)C(=O)[O-])c5csc(N)n5)[C@H]4S[C@H]3C)(CC1)CC2)c1ccc(O)c(O)c1Cl [Compound I-96] | ≤ 0.031 | 0.125 (≈ 0.147 µM) | 1 (≈ 1.18 µM) | 8 (≈ 9.42 µM) |  |  |  | 
5 | C[C@@H]1S[C@@H]2[C@H](NC(=O)/C(=N\OC(C)(C)C(=O)[O-])c3csc(N)n3)C(=O)N2C(C(=O)[O-])=C1C[N+]12CCC(Cn3ncc4c(Cl)c(O)c(O)cc4c3=O)(CC1)CC2.[Na+] [Compound I-113] | ≤ 0.031 | 0.25 | 0.25 | 4 |  |  |  | 
6 | C[C@@H]1S[C@@H]2[C@H](NC(=O)/C(=N\OC(C)(C)C(=O)[O-])c3csc(N)n3)C(=O)N2C(C(=O)[O-])=C1C[N+]12CCC(CNC(=O)C(=O)c3cc(O)c(O)c(F)c3)(CC1)CC2.[Na+] [Compound I-81] | ≤ 0.031 | 0.5 | 2 | 8 |  |  |  | 
7 | C[C@@H]1S[C@@H]2[C@H](NC(=O)/C(=N\OC(C)(C)C(=O)[O-])c3csc(N)n3)C(=O)N2C(C(=O)[O-])=C1C[N+]1(CCN2C(=O)c3cc(O)c(O)cc3C2=O)CCCC1.[Na+] [Compound I-1] | ≤ 0.031 | 1 | 1 | 16 |  |  |  | 
8 | C[C@@H]1S[C@@H]2[C@H](NC(=O)/C(=N\OC(C)(C)C(=O)[O-])c3csc(N)n3)C(=O)N2C(C(=O)O)=C1C[N+]12CCC(CC1)N(C(=O)C(=NO)c1cc(O)c(O)c(Cl)c1)CC2 [Compound I-138] |  |  |  |  | 0.5 (≈ 0.609 µM) | ≤ 0.031 | 4 (≈ 4.87 µM) | 0.25 (≈ 0.304 µM)
9 | C[C@@H]1S[C@@H]2[C@H](NC(=O)/C(=N\OC(C)(C)C(=O)[O-])c3csc(N)n3)C(=O)N2C(C(=O)[O-])=C1C[N+]12CCC(CNC(=O)C(=O)c3cc(O)c(O)c(Cl)c3)(CC1)CC2.[Na+] [Compound I-14] | ≤ 0.031 | 1 | 2 | 8 |  |  |  | 
10 | C[C@@H]1S[C@@H]2[C@H](NC(=O)/C(=N\OC(C)(C)C(=O)[O-])c3csc(N)n3)C(=O)N2C(C(=O)[O-])=C1C[N+]1(CCn2[nH]c(=O)c3cc(O)c(O)cc3c2=O)CCCC1.[Na+] [Compound I-4] | ≤ 0.031 | 2 | 1 |  |  |  |  | 
11 | C[C@@H]1S[C@@H]2[C@H](NC(=O)/C(=N\OC(C)(C)C(=O)[O-])c3csc(N)n3)C(=O)N2C(C(=O)[O-])=C1C[N+]12CCC(CNC(=O)c3cc(=O)c(O)c[nH]3)(CC1)CC2.[Na+] [Compound I-140] | ≤ 0.031 | 0.5 | 4 |  |  |  |  | 
12 | C[C@@H]1S[C@@H]2[C@H](NC(=O)/C(=N\O[C@@H](CC(=O)[O-])C(=O)[O-])c3csc(N)n3)C(=O)N2C(C(=O)[O-])=C1C[N+]12CCC(CNC(=O)C(=O)c3cc(O)c(O)c(Cl)c3)(CC1)CC2.[Na+].[Na+] [Compound I-15] |  | 1 | 4 | 16 |  |  |  | 

Continued, in another order:

Row | MIC (K. pneumoniae SR01358; [2]) [µg/mL] | MIC (E. Coli JMI1890; [4]) [µg/mL] | SMILES | MIC (A. baumannii JMI7; [1]) [µg/mL] | MIC (A. baumannii JMI2346; [3]) [µg/mL] | MIC (A. baumannii JMI7; JMI7, read-out: Minimum Inhibitory Concentration (MIC) A. baumannii JMI:7) [µg/mL] | MIC (K. pneumoniae SR01358; SR01358, read-out: Minimum Inhibitory Concentration (MIC) K. pneumoniae SR01358) [µg/mL] | MIC (A. baumannii JMI2346; JMI2346, read-out: Minimum Inhibitory Concentration (MIC) A. baumannii JMI:2346) [µg/mL] | MIC (E. Coli JMI1890) [µg/mL]
13 | ≤ 0.031 | 0.125 | C[C@@H]1S[C@@H]2[C@H](NC(=O)/C(=N\OC(C)(C)C(=O)[O-])c3csc(N)n3)C(=O)N2C(C(=O)[O-])=C1C[N+]12CCC(CC1)N(C(=O)c1cc(O)c(O)c(Cl)c1)CC2.[Na+] [Compound I-65] | 0.5 | 2 |  |  |  | 
14 | ≤ 0.031 | 0.125 | C[C@@H]1S[C@@H]2[C@H](NC(=O)/C(=N\OC(C)(C)C(=O)[O-])c3csc(N)n3)C(=O)N2C(C(=O)[O-])=C1C[N+]12CCC[C@H]1CN(C(=O)c1cc(O)c(O)c(Cl)c1)CC2.[Na+] (some centres unmarked) [Compound I-64] | 2 | 4 |  |  |  | 
15 | ≤ 0.031 | ≤ 0.031 | C[C@@H]1S[C@@H]2[C@H](NC(=O)/C(=N\OC(C)(C)C(=O)[O-])c3csc(N)n3)C(=O)N2C(C(=O)[O-])=C1C[N+]12CCC(CN3C(=O)c4cc(O)c(O)cc4C3=O)(CC1)C2.[Na+] [Compound I-116] | 0.25 | 1 |  |  |  | 
16 | ≤ 0.031 | 0.25 (≈ 0.304 µM) | C[C@@H]1S[C@@H]2[C@H](NC(=O)/C(=N\OC(C)(C)C(=O)[O-])c3csc(N)n3)C(=O)N2C(C(=O)O)=C1C[N+]12CCC(CC1)N(C(=O)/C(=N\O)c1ccc(O)c(O)c1Cl)CC2 [Compound I-137] | 0.5 (≈ 0.609 µM) | 2 (≈ 2.44 µM) |  |  |  | 
17 | ≤ 0.031 | 0.25 | C[C@@H]1S[C@@H]2[C@H](NC(=O)/C(=N\OC(C)(C)C(=O)[O-])c3csc(N)n3)C(=O)N2C(C(=O)[O-])=C1C[N+]1(C)C[C@H]2CN(C(=O)c3cc(O)c(O)c(F)c3)C[C@H]2C1.[Na+] (some centres unmarked) [Compound I-69] | 1 | 8 |  |  |  | 
18 | ≤ 0.031 | 4 | C[C@@H]1S[C@@H]2[C@H](NC(=O)/C(=N\OC(C)(C)C(=O)[O-])c3csc(N)n3)C(=O)N2C(C(=O)[O-])=C1C[N+]12CCC(CC1)N(C(=O)c1c[nH]c3cc(O)c(O)cc3c1=O)CC2.[Na+] [Compound I-174, (4S,6R,7R)-7-((Z)-2-(2-aminothiazol-4-yl)-2-(((2-carboxypropan-2-yl)oxy)imino)acetamido)-3-((4-(6,7-dihydroxy-4-oxo-1,4-dihydroquinoline-3-carbonyl)-1,4-diazabicyclo[3.2.2]nonan-1-ium-1-yl)methyl)-4-methyl-8-oxo-5-thia-1-azabicyclo[4.2.0]oct-2-ene-2-carboxylate, Sodium salt] | 0.25 | 1 |  |  |  | 
19 | ≤ 0.031 | 1 | C[C@@H]1S[C@@H]2[C@H](NC(=O)/C(=N\OC(C)(C)C(=O)[O-])c3csc(N)n3)C(=O)N2C(C(=O)[O-])=C1C[N+]1(C)C[C@H]2CN(C(=O)c3cc(O)c(O)c(Cl)c3)C[C@H]2C1.[Na+] (some centres unmarked) [Compound I-63] | 1 |  |  |  |  | 
20 | ≤ 0.031 | 8 (≈ 10.9 µM) | C[C@@H]1S[C@@H]2[C@H](NC(=O)/C(=N\OC(C)(C)C(=O)[O-])c3csc(N)n3)C(=O)N2C(C(=O)O)=C1C[N+]1(CCNC(=O)c2cc(=O)c(O)c[nH]2)CCCC1 [Compound I-130] |  |  |  |  |  | 
